Source: the supplement of paper PMC11451515

Test system: P12-Ichikawa
Assay: cell viability relative to DMSO control; higher = less cytotoxic
Settings: 48 h
How it was run: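 Viability, reported as a per-plate percentage of DMSO wells with cell-free wells as background, came from CellTiter-Glo One luminescence. Reading took place after 48 h at 37°C. Before that, NOMO1 or SEM (500 cells/well) or P12-Ichikawa (1000 cells/well) leukemia cells, adapted for at least four passages in each medium, were seeded in 1536-well plates (5 μl) and pin-dosed with library compounds in DMSO, 47 μM to 0.79 nM over 11 threefold points.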

[1] = HPLM + 10% dialyzed FBS, 0.000781 µM
[2] = HPLM + 10% dialyzed FBS, 0.00234 µM
[3] = HPLM + 10% dialyzed FBS, 0.00702 µM
[4] = HPLM + 10% dialyzed FBS, 0.0211 µM
[5] = HPLM + 10% dialyzed FBS, 0.0632 µM
[6] = HPLM + 10% dialyzed FBS, 0.19 µM
[7] = HPLM + 10% dialyzed FBS, 0.569 µM
[8] = HPLM + 10% dialyzed FBS, 1.71 µM
[9] = HPLM + 10% dialyzed FBS, 5.12 µM
[10] = HPLM + 10% dialyzed FBS, 15.4 µM
[11] = HPLM + 10% dialyzed FBS, 46.1 µM
[12] = RPMI 5 mM glucose + 10% FBS, 0.000781 µM
[13] = RPMI 5 mM glucose + 10% FBS, 0.00234 µM
[14] = RPMI 5 mM glucose + 10% FBS, 0.00702 µM
[15] = RPMI 5 mM glucose + 10% FBS, 0.0211 µM
[16] = RPMI 5 mM glucose + 10% FBS, 0.0632 µM
[17] = RPMI 5 mM glucose + 10% FBS, 0.19 µM
[18] = RPMI 5 mM glucose + 10% FBS, 0.569 µM
[19] = RPMI 5 mM glucose + 10% FBS, 1.71 µM
[20] = RPMI 5 mM glucose + 10% FBS, 5.12 µM
[21] = RPMI 5 mM glucose + 10% FBS, 15.4 µM
[22] = RPMI 5 mM glucose + 10% FBS, 46.1 µM
[23] = RPMI 5 mM glucose + 10% dialyzed FBS, 0.000781 µM
[24] = RPMI 5 mM glucose + 10% dialyzed FBS, 0.00234 µM
[25] = RPMI 5 mM glucose + 10% dialyzed FBS, 0.00702 µM
[26] = RPMI 5 mM glucose + 10% dialyzed FBS, 0.0211 µM
[27] = RPMI 5 mM glucose + 10% dialyzed FBS, 0.0632 µM
[28] = RPMI 5 mM glucose + 10% dialyzed FBS, 0.19 µM
[29] = RPMI 5 mM glucose + 10% dialyzed FBS, 0.569 µM
[30] = RPMI 5 mM glucose + 10% dialyzed FBS, 1.71 µM
[31] = RPMI 5 mM glucose + 10% dialyzed FBS, 5.12 µM
[32] = RPMI 5 mM glucose + 10% dialyzed FBS, 15.4 µM
[33] = RPMI 5 mM glucose + 10% dialyzed FBS, 46.1 µM

Structure (SMILES)	cell viability [1] [%]	cell viability [2] [%]	cell viability [3] [%]	cell viability [4] [%]	cell viability [5] [%]	cell viability [6] [%]	cell viability [7] [%]	cell viability [8] [%]	cell viability [9] [%]	cell viability [10] [%]	cell viability [11] [%]	cell viability [12] [%]	cell viability [13] [%]	cell viability [14] [%]	cell viability [15] [%]	cell viability [16] [%]	cell viability [17] [%]	cell viability [18] [%]	cell viability [19] [%]	cell viability [20] [%]	cell viability [21] [%]	cell viability [22] [%]	cell viability [23] [%]	cell viability [24] [%]	cell viability [25] [%]	cell viability [26] [%]	cell viability [27] [%]	cell viability [28] [%]	cell viability [29] [%]	cell viability [30] [%]	cell viability [31] [%]	cell viability [32] [%]	cell viability [33] [%]
CCN1\C=C(\C(O)=O)C(=O)C2=CC=C(C)N=C12	88.3	93.8	101	96.3	101	93.7	105	97.6	95.7	105	93.6	79.7	82.3	90	90.1	84.6	89.3	89.7	90.6	88.8	98.8	97	77.2	90.6	87.1	91	96	88.6	86.4	87.4	91.3	92.4	90.1
Cc1cnc(NC(=O)Nc2cc(Br)c(C)cc2OC[C@@H]2CNCCO2)cn1	119	106	112	113	120	106	104	100	76.7	93.8	48.4	108	109	105	111	118	115	111	99.1	67.9	99.5	34.3	114	120	118	121	121	123	110	91	53.2	82.4	23.9
Cc1cc2c(F)c(Oc3ncnn4cc(OC[C@@H](C)O)c(C)c34)ccc2[nH]1	115	105	102	106	111	106	97.2	97.5	96.9	73.9	52	97.7	107	101	98.1	101	109	104	99	98.8	80.7	55.8	102	100	97.3	101	104	102	95.7	97.8	90.1	79.3	52.3
C[C@@H]1[C@H](O)[C@@H](C)/C=C/C=C/C=C/C=C/C=C/C=C/C=C/[C@H](O[C@@H]2O[C@H](C)[C@@H](O)[C@H](N)[C@@H]2O)C[C@@H]2O[C@](O)(C[C@@H](O)C[C@@H](O)[C@H](O)CC[C@@H](O)C[C@@H](O)CC(=O)O[C@H]1C)C[C@H](O)[C@H]2C(=O)O	105	118	117	124	121	126	121	129	119	127	118	119	112	118	110	119	123	134	127	122	125	123	98.6	113	119	110	130	116	123	124	124	115	124
Cc1[nH]c2ccccc2c1CCNCc1ccc(/C=C/C(=O)NO)cc1	109	106	111	120	121	103	63.1	7.05	6.95	7.08	7.23	106	120	108	107	128	109	48.2	6.65	6.49	8.3	6.44	114	109	117	111	122	113	74.4	6.85	6.73	6.95	7.21
CCOC(=O)\C1=C(/C)N\C2=C(C1C3=CC=C(C=C3)C4=CC=CC=C4)\C(=O)CC(C)(C)C2 (stereo not given)	119	112	123	110	119	110	109	107	108	108	103	108	104	117	117	115	99.8	109	103	102	95.3	113	112	118	116	114	111	101	104	101	107	98.9	95.3
CC(C)=CC[C@@H](O)C/1=C/C(=O)C2=C(O)C=CC(=C2C1=O)O	90.8	107	111	108	109	109	118	111	104	17.1	8.56	93.6	113	114	120	120	114	120	106	108	22.9	8.56	92.7	106	108	108	113	107	118	117	113	55.2	21
COc1ccc(-c2ccc3c(N4CCOC[C@@H]4C)nc(N4CCOC[C@@H]4C)nc3n2)cc1CO	108	82.1	97	82.8	83.9	77.7	75.2	74.7	64.3	37.6	6.75	93.9	58.7	80.3	77.5	66.2	59.7	60.5	58.9	54.3	42.4	18.6	103	65.6	86.6	78.7	76.1	70.8	66.5	58.3	47.2	39	10.3
S=P(N1CC1)(N1CC1)N1CC1	110	106	113	107	112	105	108	97.4	88.5	99.4	85.3	98.3	99	106	102	99.8	102	108	104	104	94.9	88.2	99.6	108	103	91.7	101	101	96.2	93.1	86.9	89.9	76.3
COc1cc2ncnc(Nc3ccc(F)c(Cl)c3)c2cc1NC(=O)/C=C/CN1CCCCC1	109	108	103	106	107	97.6	106	90.1	85.4	79.1	67.9	106	106	103	101	102	106	102	92.6	85.7	82.9	75.2	101	109	94.5	109	105	102	104	88.4	80.9	76	67.8
C\C1=C(\C=C(\C#N)C(=O)N1)C2=CC=NC=C2	104	104	102	102	105	106	107	115	109	109	13.8	110	114	112	118	118	107	112	118	112	121	18.4	94.6	105	103	98.9	110	107	109	110	111	108	27.9
O=C1c2c(O)ccc(O)c2C(=O)c2c(NCCNCCO)ccc(NCCNCCO)c21	101	105	108	110	104	99.7	6.68	36.9	8.95	7	5.91	96	101	96.7	124	107	94.3	4.89	32.4	5.93	5.48	5.03	97.5	96	98	106	106	102	8.07	45.4	9.1	7.62	9.05
O=C(NC[C@H](O)CO)c1ccncc1Nc1ccc(I)cc1F	100	112	71.4	113	107	105	102	102	97.5	91.4	87.5	101	118	66.3	106	96	90.4	98.6	91.4	88.7	78.6	59.6	94.9	119	73.4	118	99.5	109	105	104	90.2	96.6	76.5
Cc1cnc(-c2cc(N3CCN(C(=O)CC[S+](C)(=O)[O-])CC3)ncc2Cl)c(C)c1	117	116	114	130	124	131	126	122	130	128	128	–	–	–	–	–	–	–	–	–	–	–	–	–	–	–	–	–	–	–	–	–	–
N[C@H](CSC(c1ccccc1)(c1ccccc1)c1ccccc1)C(=O)O	107	112	121	129	108	114	117	120	115	114	108	97.6	112	115	124	116	122	120	119	125	124	131	90.9	116	122	116	118	112	115	121	127	121	116
CC(N)C12CC3CC(CC(C3)C1)C2 (stereo not given)	105	108	111	117	124	109	111	114	110	99.1	8.72	103	113	101	–	123	118	112	112	111	117	13.2	105	106	115	101	112	110	108	125	108	105	18.8
